Values belong to the substance of their own block, whether it stands above or below them.
Experiments:
T cells = conditions: HIP from MHC-II peptidome of pancreatic islets and lymph nodes of NOD mice; cited from earlier work
HLA-DQ8 [1] = conditions: cited from earlier work
Description: (§1) Yang et al.[39] described a TRBV5-1^+ HLA-DQ8 restricted T cell clone isolated by insulin B:9-23 peptide (B:9-23 […]) tetramer staining. […] The set of mutations comprised P1AtoE, P6CtoA and P9RtoE and P11FtoC ([…]; mutated residues in italics, P1-P9 register in bold)[22],[24],[39]. This engineered epitope was used as a model put forw ...

T1D3 T cell clone = conditions: cited from earlier work
Description: as §1

CD4+ T cell clone A1.9 = assay: T cell stimulation assay, IFNγ ELISA, clone A1.9; type: cell-based, human; conditions: primary clone A1.9, APC EBV-KJ, 24 h, 31-mer C-peptide versus 15mer HIP titration
Protocol: Fig. 2 Comparison of the stimulatory capacity of full-length proinsulin C-peptide and HIP on T1D CD4 + T cell clones. […] Titration of full-length 31-mer C-peptide ([…], (open circles) and 15mer C-peptide-IAPP2 HIP ([…] (filled circles). Antigen presenting cells (APC) were the EBV line, EBV-KJ, (2 × 10^4 cells/well). APC were cultured for 24 h with the same number (2 × 10^4 cells/well) of the primary CD4 + T-cell clone and the peptide concentration indicated. T-cell response to peptide were indicated by secretion of IFNγ which was measured in triplicate by ELISA and reported as pg/ml. Mean and standard deviations of triplicate IFNγ measurements are shown. Results are representative of two experiments for each clone.
For primary T1D CD4+ T cell clones, cells were thawed and used directly in functional assays. For T cell stimulation assays, cloned CD4+ T cells were incubated with BLCL KJ (; HLA-DQ8 + : HLA-DQA1*03:01, HLA-DQB1*03:02), as APCs, together with synthetic peptides. For the alanine scan experiments, each peptide was added to a final concentration of 10 μM. T cell response to antigen was measured as interferon gamma (IFNγ) secretion into the culture media. The IFNγ concentration in the culture media was determined by ELISA (Biolegend).
Supplementary Figure 8. […]
type) at each position P-3 to P12 are shown. IFNγ was measured in triplicate by ELISA, concentrations are shown in pg/ml. […]

HLA-DQ8 [2] = assay: Size exclusion chromatography, aggregate versus monomer of HLA-DQ8-peptide; type: physicochemical, human; conditions: SEC, data not shown
Description: The proinsulin C-peptide epitope (PI40-54 […]; predicted binding register in bold) lacks both a preferred acidic residue at P9 and aliphatic residue at P4, whereas HIP ([…]) lacks the preferred P4 residue. […] To overcome this, as undertaken previously with a modified B:11-23 peptide and HLA-DQ8[22], we engineered a construct with a disulfide bond between p11 of the HIP peptide or proinsulin C-peptide and HLA-DQ8α I72C to produce HLA-DQ8αΙ72C-CpepL11C (HLA-DQ8-CpepL11C; […]; predicted binding register in bold, P11Cys in italics) and HLA-DQ8αΙ72C-HIPL11C (HLA-DQ8-HIPL11C; […]; predicted binding register in bold, proinsulin C-peptide derived underlined, IAPP2 derived bold italics and P11Cys italics).

Substance: LQTLAL–NAARD [proinsulin C-peptide-IAPP2 HIP from NOD mice]
T cell autoreactivity (T cells): had T cell autoreactivity

Substance: SHLVEALYLVCGERG [B:9-23]
affinity for HLA-DQ8 (HLA-DQ8 [1]): poor affinity
reactivity of / recognition by TRBV5-1+ T1D3 (T1D3 T cell clone): low reactivity

Substance: EAEDLQVGQVELGGGPGAGSLQPLALEGSLQ [proinsulin C-peptide, full-length 31-mer proinsulin C-peptide, reference compound]
response of clone to HIP versus proinsulin C-peptide (CD4+ T cell clone A1.9): responds equally to proinsulin C-peptide or HIP

Substance: LVEELYLVAGEEGC [engineered insulin B:9-23 peptide]
reactivity of / recognition by TRBV5-1+ T1D3 (T1D3 T cell clone): recognised by the TRBV5-1^+ T1D3 TCR

stability of HLA-DQ8 complex (ratio of aggregate versus monomer) (HLA-DQ8 [2]): unstable HLA-DQ8 binary complexes
Substance: GQVELGGGPGAGSLQ [PI40-54, reference compound]
